According to US11701369B2, “Polymeric bile acid derivatives inhibit Hepatitis B and D virus and NTCP transport” (Huahui Health Ltd., priority 2014, dated 2023):
“Also recorded” adds a separate entry of the source.

How the values were obtained:
HBV [1] = experiment: HBV infection assay on HepaRG cells (HBsAg and HBeAg ELISA); type: cell-based, Hepatitis B virus; settings: HBsAg and HBeAg at 5 dpi
Description: FIG. 11 HepaRG cells were infected with HBV in the presence of indicated PBADs. The level of secreted HBsAg and HBeAg was detected by ELISA at 5 dpi.
The antiviral potency of PBADs is also repeatable on other HBV infection system (HepaRG) with similar inhibition profile. […] HBV infection was conducted in the presence of NQL028, NQL018, NQL029, NQL019 and NQL021, all of which were bis-ester based PBADs with different linkage length.

HBV [2] = experiment: HBV infection assay on HepG2-NTCP cells (secreted HBeAg by ELISA); type: cell-based, Hepatitis B virus; settings: HepG2-NTCP cells, secreted HBeAg
Description: (§1) HBV and HDV infection assay. HepG2NTCP Cells were cultured in PMM for 12-24 hrs before infection, and then inoculated with 200 multiplicities of genome equivalents (mge) of HBV, or 500 mge of HDV in the presence of 5% PEG8000 in PMM at 37° C. for about 24 hrs. Chemicals to be tested were added to the cells as indicated in the specific assays. The inoculum was replenished by PMM post infection. The infections were detected at day 5 post infection (dpi).
ELISA assay for the detection of HBeAg and HBsAg. ELISA kits for HBeAg and HBsAg detection were from Wantai Pharm Inc. (Beijing, China). Supernatant from infected HepG2NTCP cells was collected on 2-5 days post infection. The secreted HBeAg and HBsAg in the culture medium was measured with a commercial kit from Wantai Pharm Inc (Beijing, China) by following the manufactory's instructions.

HDV = HDV infection assay on HepG2-NTCP cells (intracellular delta antigen staining); type: cell-based, Hepatitis D virus
Description: as §1
Immunostaining assay. For HBV infection, infected cells were washed twice with PBS and fixed in 3.7% paraformaldehyde (PFA) at room temperature for 10 mins. Subsequently, cells were permeabilized with 0.5% Trition X-100/PBS for 10 mins at room temperature, blocked with 3% BSA at 37° C. for 1 hour, and followed by incubating with 5 μg/ml mouse mAb1C10 which recognizes HBcAg, and followed by staining with FITC-conjugated secondary antibody. Nucleus was stained with DAPI in blue. The stained cells were imaged with the fluorescence microscope (Nikon). For HDV infection, on 5 dpi, HDV infected cells were fixed with 100% methanol at room temperature for 10 mins, intracellular delta antigens were then stained with 5 μg/ml of FITC conjugated 4G5 and nucleus were stained with DAPI in blue. Images were collected by an Eclipse Ti Fluorescence Microscope (Nikon) and a representative picture is shown.

NTCP = target: T1, NTCP (Homo sapiens, UniProt Q14973); experiment: [3H] taurocholate uptake assay on HepG2-NTCP cells; type: cell-based; settings: co-incubation assay, [3H] taurocholate, 10 min
T1 construct: expressed in transfected cells
T1 sequence (Q14973 1-349): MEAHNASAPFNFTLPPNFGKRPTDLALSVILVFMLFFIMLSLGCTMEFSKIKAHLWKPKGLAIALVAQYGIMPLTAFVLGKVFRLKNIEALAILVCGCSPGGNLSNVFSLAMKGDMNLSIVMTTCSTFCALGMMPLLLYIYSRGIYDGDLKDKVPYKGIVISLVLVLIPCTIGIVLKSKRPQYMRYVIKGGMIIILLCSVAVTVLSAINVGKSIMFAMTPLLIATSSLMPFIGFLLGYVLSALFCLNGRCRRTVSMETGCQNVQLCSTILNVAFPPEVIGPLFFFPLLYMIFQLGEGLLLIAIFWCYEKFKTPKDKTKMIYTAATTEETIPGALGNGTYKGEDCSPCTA
Description: [3H] substrate uptake assay. [3H]taurocholate uptake assay was conducted following a protocol as previously described(60). In general, HepG2-NTCP cells were cultured in PMM for 12-24 hrs, then were treated with or without indicated chemicals before uptake assay. For substrate uptake assay, cells were generally incubated with 0.5 μl (0.5 μCi) [3H]-taurocholate dissolved in Na+ Ringer's solutions for 10 mins at 37° C. with or without the presence of chemicals. Subsequently, cells were washed once by PBS and lysed by 100 μl of 1% TritonX-100 in H2O for 5 mins at room temperature. The lysate was transferred into liquid scintillation tube and mixed with 900 μl liquid scintillation cocktail (Ultima GOLD™ XR) (Perkin Elmer, USA). Liquid scintillation counting was performed on a Perkin Elmer 1450 LSC Liquid Scintillation Counter and Luminescence Counter.

HBV [3] = experiment: In vitro stability: incubation with HBV inocula before infection, HBeAg ELISA; type: cell-based, Hepatitis B virus; settings: incubated with HBV inocula for different times before infection, HBeAg at 5 dpi
Description: FIG. 10 The influence of the linkage groups on the in vitro stability of PBADs. TUDCA, NQL018, NQL044, and NQL055 were incubated with HBV inocula of different times before viral infection, and present in the inocula during infection period. The level of secreted HBeAg was detected by ELISA at 5 dpi.
The in vitro stability of PBADs could PBADs could be enhanced by optimization of the linkage bond. We conducted stability analysis of several PBADs with similar structure but of different linkage. […] This indicates the in vitro and in vivo stability is to a large extent determined by the feature of the linkage groups.

Row | SMILES | inhibition of HBV infection (in words) (HBV [2]) | other results
1 | C[C@H](CCC(=O)NCCS(=O)(=O)O)[C@H]1CC[C@H]2[C@@H]3[C@@H](O)CC4C[C@H](OC(=O)CCCCCC(=O)O[C@@H]5CC[C@@]6(C)C(C5)C[C@H](O)[C@H]5[C@@H]7CC[C@H]([C@H](C)CCC(=O)NCCS(=O)(=O)O)[C@@]7(C)CC[C@@H]56)CC[C@]4(C)[C@H]3CC[C@]12C (stereo in doubt) [NQL-019] | – | inhibition of HBV infection on HepaRG cells (in words) (HBV [1]): inhibited HBV infection
2 | C[C@H](CCC(=O)NCCS(=O)(=O)O)[C@H]1CC[C@H]2[C@@H]3[C@@H](O)CC4C[C@H](OC(=O)CCC(=O)O[C@@H]5CC[C@@]6(C)C(C5)C[C@H](O)[C@H]5[C@@H]7CC[C@H]([C@H](C)CCC(=O)NCCS(=O)(=O)O)[C@@]7(C)CC[C@@H]56)CC[C@]4(C)[C@H]3CC[C@]12C (stereo in doubt) [NQL-028] | – | inhibition of HBV infection on HepaRG cells (in words) (HBV [1]): inhibited HBV infection
3 | C[C@H](CCC(=O)NCCS(=O)(=O)O)[C@H]1CC[C@H]2[C@@H]3[C@@H](O)CC4C[C@H](OC(=O)CCCCC(=O)O[C@@H]5CC[C@@]6(C)C(C5)C[C@H](O)[C@H]5[C@@H]7CC[C@H]([C@H](C)CCC(=O)NCCS(=O)(=O)O)[C@@]7(C)CC[C@@H]56)CC[C@]4(C)[C@H]3CC[C@]12C (stereo in doubt) [NQL-029] | – | inhibition of HBV infection on HepaRG cells (in words) (HBV [1]): inhibited HBV infection
4 | C[C@H](CCC(=O)NCCS(=O)(=O)O)[C@H]1CC[C@H]2[C@@H]3[C@@H](O)CC4CC5(CC[C@]4(C)[C@H]3CC[C@]12C)N=N5 (stereo partly shown) [3-Diz-TUDCA] | did not show significantly improved inhibitory efficiency over the natural monomeric TUDCA | –
5 | CC(=O)O[C@@H]1CC[C@@]2(C)C(C1)C[C@H](O)[C@H]1[C@@H]3CC[C@H]([C@H](C)CCC(=O)NCCS(=O)(=O)O)[C@@]3(C)CC[C@@H]12 (stereo partly shown) [3-OAc-TUDCA] | did not show significantly improved inhibitory efficiency over the natural monomeric TUDCA | –
6 | C[C@H](CCC(=O)NCCS(=O)(=O)O)[C@H]1CC[C@H]2[C@H]3[C@H](CC[C@]12C)[C@@]1(C)CC[C@@H](O)CC1CC31N=N1 (stereo partly shown) [7-Diz-TUDCA] | did not show significantly improved inhibitory efficiency over the natural monomeric TUDCA | –
7 | C[C@H](CCC(=O)OCCCCC[C@@H]1SC[C@@H]2NC(=O)N[C@@H]21)[C@H]1CC[C@H]2C3[C@@H](O)CC4C[C@H](O)CC[C@]4(C)[C@H]3CC[C@]12C (stereo partly shown) [Biotin-UDCA] | did not show significantly improved inhibitory efficiency over the natural monomeric TUDCA | –
8 | CCN(CCCN(C)C)C(=O)OC(=O)CC[C@@H](C)[C@H]1CC[C@H]2[C@@H]3[C@@H](O)CC4C[C@H](O)CC[C@]4(C)[C@H]3CC[C@]12C (stereo partly shown) [CA-UDCA, Carbamic-UDCA] | did not show significantly improved inhibitory efficiency over the natural monomeric TUDCA | –
9 | C[C@H](CCC(=O)NCCCC1(C)N=N1)[C@H]1CC[C@H]2[C@@H]3[C@@H](O)CC4C[C@H](O)CC[C@]4(C)[C@H]3CC[C@]12C (stereo partly shown) [Diz-UDCA, Diz-Ursodeoxycholic acid] | did not show significantly improved inhibitory efficiency over the natural monomeric TUDCA | –
10 | C[C@H](CCC(=O)NCCS(=O)(=O)O)[C@H]1CC[C@H]2[C@@H]3[C@@H](O)CC4C[C@@H](O)CC[C@]4(C)[C@H]3CC[C@]12C (stereo partly shown) [Iso-TUDCA, Iso-tauroursodeoxycholic acid] | did not show significantly improved inhibitory efficiency over the natural monomeric TUDCA | –
11 | C[C@H](CCC(=O)NCCS(=O)(=O)O)[C@H]1CC[C@@H]2C3[C@@H](OC(=O)CC[C@@H](C)[C@H]4CC[C@@H]5C6[C@@H](CC[C@@]54C)[C@@]4(C)CC[C@H](O)CC4C[C@@H]6O)CC4C[C@@H](O)CC[C@]4(C)[C@@H]3CC[C@@]21C (stereo partly shown) [NQL-015] | high antiviral activity; also recorded: greatly improved potency | inhibition of HDV infection (in words) (HDV): high antiviral activity; also recorded: greatly improved potency; inhibition of NTCP substrate uptake (in words) (NTCP): significantly higher efficiency than that of TUDCA
12 | C[C@H](CCC(=O)NCCS(=O)(=O)O)[C@H]1CC[C@H]2[C@@H]3[C@@H](O)CC4CC(NC(=O)CCCC(=O)NC5CC[C@@]6(C)C(C5)C[C@H](O)[C@H]5[C@@H]7CC[C@H]([C@H](C)CCC(=O)NCCS(=O)(=O)O)[C@@]7(C)CC[C@@H]56)CC[C@]4(C)[C@H]3CC[C@]12C (stereo partly shown) [NQL-021] | – | inhibition of HBV infection on HepaRG cells (in words) (HBV [1]): inhibited HBV infection
13 | C[C@H](CCC(=O)NCCS(=O)(=O)O)[C@H]1CC[C@H]2[C@@H]3[C@@H](O)CC4C[C@H](NC(=O)CCCC(=O)N[C@@H]5CC[C@@]6(C)C(C5)C[C@H](O)[C@H]5[C@@H]7CC[C@H]([C@H](C)CCC(=O)NCCS(=O)(=O)O)[C@@]7(C)CC[C@@H]56)CC[C@]4(C)[C@H]3CC[C@]12C (stereo partly shown) [NQL-044] | high antiviral activity | inhibition of HDV infection (in words) (HDV): high antiviral activity; in vitro stability (antiviral potency after long incubation with the inoculum) (HBV [3]): much more stable as no significant potency decrease was observed
14 | C[C@H](CCC(=O)NCCS(=O)(=O)O)[C@H]1CC[C@H]2[C@@H]3[C@@H](O)CC4C[C@H](OCc5cn([C@@H]6CC[C@@]7(C)C(C6)C[C@H](O)[C@H]6[C@@H]8CC[C@H]([C@H](C)CCC(=O)NCCS(=O)(=O)O)[C@@]8(C)CC[C@@H]67)nn5)CC[C@]4(C)[C@H]3CC[C@]12C (stereo partly shown) [NQL-055] | – | in vitro stability (antiviral potency after long incubation with the inoculum) (HBV [3]): much more stable as no significant potency decrease was observed
15 | C[C@H](CCC(=O)NCCS(=O)(=O)O)[C@H]1CC[C@H]2[C@@H]3[C@@H](O)CC4C[C@H](O)CC[C@]4(C)[C@H]3CC[C@]12C (stereo partly shown) [TUDCA, Tauroursodeoxycholic acid, reference compound] | most potent one among all bile acid derivatives tested | –
